Columns and labels:
[1] = tested on: gastric cancer cells SGC-7901; test: Efficacy study in nude mouse with xenograft tumor, SGC-7901; format: in vivo, human; conditions: BALB/cA-nude mice, subcutaneous xenograft, 50 mg/kg intragastric once daily for 21 days, dosed as hydrochloride
Experimental: (§1) BALB/cA-nude mice aged 6 to 7 weeks were purchased from Shanghai Slac Laboratory Animal Co., Ltd. The nude mice were subcutaneously grafted with human liver cancer cells Bel-7402, colon cancer cells HT-29, gastric cancer cells SGC-7901 or non-small cell lung cancer cells A549. After the tumor grew to 100 to 250 mm^3, the animals were randomized (d0). The tumor volumes and body weights were measured twice or thrice a week, and the data were recorded. Tumor volume (V) was calculated as follows:
(§2) [formula] • wherein a and b represent length and width, respectively; T and C are the tumor volumes at the end of study; T0 and C0 are the tumor volumes at the start of study.
(§3) All samples were diluted to the desired concentration with 50% PEG400 in distilled water. The regimen was once daily for 21 days at 50 mg/kg mouse body weight through intragastric administration, and 50 mg/kg for the control. The compounds obtained in Examples 1, 3, 4, 5, 6, 7, 8, 9, 10, 11, 12, 13 and 14 and the control were prepared into corresponding hydrochloride as the dosing compounds according to the method disclosed in Example 2 to investigate their efficacy on human liver cancer cell Bel-7402, colon cancer cell HT-29, gastric cancer cell SGC-7901 or non-small cell lung cancer cell A549 xenograft tumors in nude mice and to compare the compounds with the control (prepared as in Example 16).

[2] = tested on: human liver cancer cells Bel-7402; test: Efficacy study in nude mouse with xenograft tumor, Bel-7402; format: in vivo; conditions: BALB/cA-nude mice, subcutaneous xenograft, 50 mg/kg intragastric once daily for 21 days, dosed as hydrochloride
Experimental: as §1, §2, §3

colon cancer cells HT-29 = test: Efficacy study in nude mouse with xenograft tumor, HT-29; format: in vivo, human; conditions: BALB/cA-nude mice, subcutaneous xenograft, 50 mg/kg intragastric once daily for 21 days, dosed as hydrochloride
Experimental: as §1, §2, §3

[3] = tested on: non-small cell lung cancer cells A549; test: Efficacy study in nude mouse with xenograft tumor, A549; format: in vivo, human; conditions: BALB/cA-nude mice, subcutaneous xenograft, 50 mg/kg intragastric once daily for 21 days, dosed as hydrochloride
Experimental: as §1, §2, §3

Male ICR mice = test: Acute toxicity study in animals (oral LD50); conditions: mouse, in vivo
Description: Male ICR mice weighed 23±2 g, clean grade, were selected. The route of administration was intragastric (ig) administration, which is consistent with the intended oral route for clinical use.
Mice were randomly divided into 8 groups by weight: the blank control group, Example 1 group, Example 5 group, Example 11 group, Example 12 group, Example 13 group, Example 14 group and control group. Among these, the control group received amino-combretastatin serinamide hydrochloride as the control (hereinafter referred to as control).
Preparation of the compounds used in the example groups: The compounds obtained in Example 1, Example 3. Example 4. Example 5. Example 6. Example 7. Example 8. Example 9. Example 10. Example 11. Example 12, Example 13 and Example 14 were prepared into hydrochloride salts according to the method disclosed in Example 2.
Pre-treatment: […] were deprived of food but not water for 12 h before the study. and randomized into groups of 10 by body weight. The treatment groups were intragastrically administered once at 0.25 mL/10 g body weight, and the water control group received an equivalent amount of distilled water through intragastric administration. The LD100 value (the amount for 100% death), LD0 (the amount for 0 death) and the corresponding range r value between the dose groups were calculated, and LD50 was determined.
Study procedures: 160 mice were randomized into 8 groups of 20 mice by body weight. After deprivation of food but not water for 12 h before the study, each group was intragastrically given the compound once at 0.3 mL/10 g body weight. Since no death was observed after 12 h, the second dose was given. The control group received equivalent volumes of water. The daily dose of each group was calculated; the control group received equal volumes of water and was subjected to an acute toxicity study for observation and the body weight of the mice was recorded daily for 14 days.

## amino-combretastatin serinamide hydrochloride [Control, reference compound]
[1]
  % tumor inhibition (D21) SGC-7901: 34%
[2]
  % tumor inhibition (D21) Bel-7402: 39%
Colon cancer cells HT-29
  % tumor inhibition (D21) HT-29: 42%
[3]
  % tumor inhibition (D21) A549: 30%
Male ICR mice
  LD50: 200 mg/kg
